{
  "source": "patent US9611295B2",
  "about": "“Treatment of IL-17 mediated disease by blocking SEFIR-SEFIR interactions” (THE CLEVELAND CLINIC FOUNDATION, priority 2011, dated 2017)",
  "molecules": {"B1": {"name": "recombinant Act1 SEFIR domain: SEFIR domain containing fragment of mouse Act1, residues 391 to 537 (protein)", "chain": "RKVFITYSMDTAMEVVKFVNFLLVNGFQTAIDIFEDRIRGIDIIKWMERYLRDKTVMIIVAISPKYKQDVEGAESQLDEDEHGLHTKYIHRMMQIEFISQGSMNFRFIPVLFPNAKKEHVPTWLQNTHVYSWPKNKKNILLRLLREE"}},
  "key": {"[1]": {"system": "House Dust Mite (HDM)-induced Asthma", "experiment": "Murine model of House Dust Mite (HDM)-induced asthma", "format": "in vivo, mouse", "details": "day 6; about 100,000 cells/ml without peptide", "description": "FIG. 11 provides a graph showing that the ASI peptide inhibits inflammation in a murine model of experimental House Dust Mite (HDM)-induced Asthma. The white blood cell count was about 100,000 cells/ml when IL-17 was used alone, but dropped to about 10,000 cells/ml when ASI peptide was used together with IL-17. […] Ears from C57B1/6 mice (n=3 for each group) were injected daily with PBS, IL-17 with or without ASI. On day 7, ears were collected for staining with H&E and real-time analysis of gene expression."}, "[2]": {"system": "IL-17-induced inflammation in mouse ear skin", "experiment": "IL-17-induced inflammation in mouse ear skin", "format": "in vivo", "details": "C57B1/6 mice, daily injection", "description": "Ears from C57B1/6 mice (n=3 for each group) were injected daily with PBS, IL-17 with or without ASI. On day 7, ears were collected for staining with H&E and real-time analysis of gene expression."}, "[3]": {"system": "IL-25-dependent signaling", "experiment": "IL-25-dependent signaling in MEFs by Western blotting (pIκB, pJNK, pERK, pp38 MAPK)", "format": "cell-based, mouse", "details": "MEFs expressing IL-17RB, peptides 200 μM, 24 hours", "description": "FIG. 4 provides data showing that a cell-permeable CC′ loop decoy peptide disrupts the interaction between Act1 and IL-17RA and inhibits IL-17R and IL-25R signaling. FIG. 4A provides sequences of Antennapedia homeodomain (Antp) (SEQ ID NO: 11)and decoy peptides (SEQ ID NOS 23-25 and 17, respectively, in order of appearance) with the Antp sequence underlined. FIG. 4B provides flow cytometry results based on experiments in which MEFs expressing IL-17RB were incubated for 2 or 24 hours with the indicated FITC-tagged peptides (200 μM) and were then analyzed by flow cytometry. […] The percentages of FITC-positive cells in the treated samples are shown. FIG. 4C provides Western blot results of experiments in which HeLa cells were cotransfected with plasmids encoding FLAG-tagged mAct1 and V5-tagged IL-17RA and were cultured for 24 hours, after which they were incubated for 24 hours with the indicated peptides (200 μM). IL-17RA was immunoprecipitated from the samples with antibody against the V5 tag, and samples were then subjected to Western blotting analysis with the indicated antibodies. FIG. 4D provides Western blot results of experiments in which MEFs expressing IL-17RB were incubated with the indicated peptides (200 μM) for 24 hours after which they were treated with IL-17 or IL-25 and then analyzed by Western blotting with the indicated antibodies. FIG. 4E provides bar graphs showing the results of experiments in which MEFs expressing IL-17RB were incubated with the indicated peptides (200 μM) for 24 hours, after which they were treated with IL-17 or IL-25 for 3 hours. The abundances of Cxcl1 and Il13 mRNAs were then measured by real-time RT-PCR. […]\n(§1) Decoy peptides are based on surface-exposed regions of the primary sequence of a protein to mimic a putative interaction interface. […] These decoy peptides were also tagged at their C-termini with fluorescein isothiocyanate (FITC) to enable their cell-penetrating efficiency to be evaluated by flow cytometric sanalysis. […]"}, "[4]": {"system": "IL-17-mediated expression of Cxcl1", "experiment": "IL-17-mediated Cxcl1 mRNA expression in MEFs, real-time RT-PCR", "format": "cell-based, mouse", "details": "peptides 200 μM for 24 hours, then IL-17 for 3 hours", "description": "(§2) FIG. 4 provides data showing that a cell-permeable CC′ loop decoy peptide disrupts the interaction between Act1 and IL-17RA and inhibits IL-17R and IL-25R signaling. FIG. 4A provides sequences of Antennapedia homeodomain (Antp) (SEQ ID NO: 11)and decoy peptides (SEQ ID NOS 23-25 and 17, respectively, in order of appearance) with the Antp sequence underlined. FIG. 4B provides flow cytometry results based on experiments in which MEFs expressing IL-17RB were incubated for 2 or 24 hours with the indicated FITC-tagged peptides (200 μM) and were then analyzed by flow cytometry. […] The percentages of FITC-positive cells in the treated samples are shown. […] FIG. 4D provides Western blot results of experiments in which MEFs expressing IL-17RB were incubated with the indicated peptides (200 μM) for 24 hours after which they were treated with IL-17 or IL-25 and then analyzed by Western blotting with the indicated antibodies. […] The abundances of Cxcl1 and Il13 mRNAs were then measured by real-time RT-PCR. […]\nas §1"}, "[5]": {"system": "IL-25-mediated expression of Il13", "experiment": "IL-25-mediated Il13 mRNA expression in MEFs, real-time RT-PCR", "format": "cell-based, mouse", "details": "peptides 200 μM for 24 hours, then IL-25 for 3 hours", "description": "as §2, §1"}, "[6]": {"molecular_target": "T1, IL-17RA SEFIR domain (Homo sapiens, UniProt Q96F46)", "T1 construct": "IL17RA-SEFIR, amino acid residues 351 to 616; 6xHis (N, cleaved yes); TEV recognition site (ENLYFQG) (N, cleaved yes); made in house", "T1 sequence (Q96F46 351-616)": "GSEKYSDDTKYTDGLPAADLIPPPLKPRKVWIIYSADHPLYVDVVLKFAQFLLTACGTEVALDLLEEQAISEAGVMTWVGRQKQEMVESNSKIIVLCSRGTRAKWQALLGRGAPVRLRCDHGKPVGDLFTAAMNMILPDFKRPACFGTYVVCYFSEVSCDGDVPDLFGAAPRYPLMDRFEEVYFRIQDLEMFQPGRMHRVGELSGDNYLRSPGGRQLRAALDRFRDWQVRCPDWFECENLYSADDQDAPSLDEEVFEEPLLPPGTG", "experiment": "SPR binding of peptides to immobilized IL-17RA SEFIR domain", "details": "sensor-immobilized IL-17RA SEFIR, Biacore 3000", "from_the_text": "The Cins helix and the CC′ loop are distinct putative surface-exposed sequences in the SEFIR3 segment of Act1. To determine whether the Cins helix and the CC′ loop interacted with IL-17RA, surface plasmon resonance (SPR) was used to test peptides derived from Cins (SPKYKQDVEGAESQ) (SEQ ID NO: 19) and the CC′ loop (LDEDEHGLHTKY) (SEQ ID NO: 5) for their ability to bind to the IL-17RA SEFIR domain. As expected, the recombinant Act1 SEFIR domain bound to the sensor-immobilized SEFIR of IL-17RA.\nExpression and purification of IL-17RA and mAct1-SEFIR proteins: The cDNA encoding a SEFIR domain-containing fragment of human IL17RA (IL17RA-SEFIR, amino acid residues 351 to 616) was subcloned into a modified pET-28 vector, with a N-terminal 6×His tag (SEQ ID NO: 18)and a tobacco etch virus protease (TEV) recognition site (ENLYFQG) (SEQ ID NO: 21 )). The IL17RA SEFIR domain was expressed and purified by double-Nickel-Nitrilotriacetic Acid (Ni-NTA) affinity methods as previously described. Deng et al., Acta Crystallogr D Biol Crystallogr 60:203-204 (2004). The His-tag was subsequently removed from the eluted fusion protein by rTEV, and IL17RA-SEFIR was further purified as flow-through material from a second subtracting Ni-NTA column. Size-exclusion chromatography on a superdex s200 HR high resolution column was used as a final step for purification. The cDNA encoding a SEFIR domain containing a fragment of mouse Act1 (mAct1-SEFIR, residues 391 to 537) was subcloned into a modified pET28b vector that expresses maltose-binding protein (MBP) with an N-terminal 6×His tag (SEQ ID NO: 18) and a C-terminal TEV recognition site. Recombinant mAct1-SEFIR was expressed and purified as previously described. Deng et al., Proc Natl Acad Sci USA 105:1499-1504 (2008). The His-tagged MBP moiety was cleaved from the fusion protein by rTEV after the first Ni-NTA column purification. Recombinant mAct1-SEFIR was subsequently collected as flow-through from a second subtracting Ni-NTA column.\nSPR analysis: Binding of purified Act1 SEFIR domain or peptides to IL-17RA was conducted on a Biacore 3000. Purified IL-17RA SEFIR domain was immobilized on a CM5 sensor chip in 10 mM acetic acid (pH 4.5). Purified Act1 SEFIR domain or peptides were allowed to flow over the chip in a buffer of 10 mM Hepes (pH 7.4), 150 mM NaCl, and 0.005% surfactant P20. The chip was regenerated with 1 M NaCl. Binding KD values were determined by Biaevaluation software."}},
  "data": [
    {"molecule": "ASI peptide: the CC′ loop decoy peptide (SEQ ID NO: 5) (LDEDEHGLHTKY)", "values": [
      {"measurement": "white blood cell count in BAL", "setting": "[1]", "result": "about 10,000 cells/ml"},
      {"measurement": "epidermal thickness and inflammation of ear skin (H&E)", "setting": "[2]; day 7", "result": "inhibits IL-17-induced inflammation"},
      {"measurement": "inflammatory gene expression in ear skin (bar graphs)", "setting": "[2]; day 7, real-time analysis", "result": "counteracted the inflammatory results of IL-17"}
    ]},
    {"molecule": "Act1 SEFIR domain BB′ loop peptide: cell-permeable decoy peptide: BB′ loop sequence of Act1 SEFIR domain fused to C-terminus of Antp (DRQIKIWFQNRRMKWKKEDRIRGID) [reference compound]", "values": [
      {"measurement": "IL-25-dependent signaling (pIκB, pJNK, pERK, pp38 MAPK)", "setting": "[3]", "result": "but not the Act1 SEFIR domain BB′ loop peptide, partly attenuated"},
      {"measurement": "inhibition of IL-17-mediated expression of Cxcl1", "setting": "[4]", "result": "no effect"},
      {"measurement": "inhibition of IL-25-mediated expression of Il13", "setting": "[5]", "result": "no effect"}
    ]},
    {"molecule": "EDRIRGID (listed as Mus sp.) [peptide derived from the BB′ loop, reference compound]", "values": [
      {"measurement": "binding to the IL-17RA SEFIR domain (SPR)", "setting": "[6]", "result": "did not bind"}
    ]},
    {"molecule": "LDEDEHGLHTKY [CC′ loop peptide]", "values": [
      {"measurement": "binding to the IL-17RA SEFIR domain (SPR)", "setting": "[6]", "result": "bound to the IL-17RA SEFIR"}
    ]},
    {"molecule": "SPKYKQDVEGAESQ [Cins peptide, reference compound]", "values": [
      {"measurement": "binding to the IL-17RA SEFIR domain (SPR)", "setting": "[6]", "result": "but not the Cins peptide, bound to the IL-17RA SEFIR"}
    ]},
    {"molecule": "B1", "values": [
      {"measurement": "binding to the IL-17RA SEFIR domain (SPR)", "setting": "[6]", "result": "bound"}
    ]}
  ]
}
